These results are taken from PubChem BioAssay AID2060903 (Molecular Pharmacology Branch, DTP, NCI, 2025).

For this test, the system named is 377384-186-R-J1-PDC complex spheroid viability. In words: Anticancer human tumor 377384-186-R-J1-PDC patient-derived pancreatic carcinoma cell line growth inhibition [RAS]. The note with it: for viability, T/C: stronger effect = lower value. A digest of the protocol:
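Agents were tested in combination matrices in half-log decrements from a top concentration at or near clinical Cmax (10 microM if undetermined). Targets were multi-cell spheroids of tumour lines plus HUVEC and MSC stromal cells.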

Structures are written as SMILES. Values joined by “and” are separate entries in the source; they are usually repeats but may differ in a detail not shown here. Equal entries are not always repeated.
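Further: spheroids exposed to compounds for seven days before readout.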

Regarding `Cc1nc(N2CCC3(CC2)COC(C)C3N)c(CO)nc1Sc1ccnc(N)c1Cl` (centres undefined) + C=CC(=O)N1CCN(c2nc(OCC3CCCN3C)nc3c(F)c(-c4nc(N)cc(C)c4C(F)(F)F)c(Cl)cc23)C(C)C1, the IC50 runs as follows: (curve of first compound, second compound 0.00316 µM) over 10 µM; (curve of first compound, second compound 0.01 µM) over 10 µM; (curve of first compound, second compound 0.0316 µM) over 10 µM; (curve of first compound, second compound 0.1 µM) over 10 µM; (curve of first compound, second compound 0.316 µM) over 10 µM; (curve of first compound, second compound 1 µM) over 10 µM. Also, the viability, T/C is, setting by setting: (second compound 0.00316 µM, first compound 0.0316 µM) 94.2%; (second compound 0.00316 µM, first compound 0.1 µM) 77%; (second compound 0.00316 µM, first compound 0.316 µM) 84%; (second compound 0.00316 µM, first compound 1 µM) 80.4%; (second compound 0.00316 µM, first compound 3.16 µM) 70%; (second compound 0.00316 µM, first compound 10 µM) 67%. Further, the viability, T/C runs as follows: (second compound 0.01 µM, first compound 0.0316 µM) 90.9%; (second compound 0.01 µM, first compound 0.1 µM) 85.9%; (second compound 0.01 µM, first compound 0.316 µM) 81%; (second compound 0.01 µM, first compound 1 µM) 74.7%; (second compound 0.01 µM, first compound 3.16 µM) 79.1%; (second compound 0.01 µM, first compound 10 µM) 77.8%. For the same compound, the viability, T/C is 91.1% (second compound 0.0316 µM, first compound 0.0316 µM); 80.7% (second compound 0.0316 µM, first compound 0.1 µM); 72.4% (second compound 0.0316 µM, first compound 0.316 µM); 80.4% (second compound 0.0316 µM, first compound 1 µM); 79.2% (second compound 0.0316 µM, first compound 3.16 µM); 78.4% (second compound 0.0316 µM, first compound 10 µM). Further, the viability, T/C reads like this: (second compound 0.1 µM, first compound 0.0316 µM) 84.4%; (second compound 0.1 µM, first compound 0.1 µM) 82.7%; (second compound 0.1 µM, first compound 0.316 µM) 70.7%; (second compound 0.1 µM, first compound 1 µM) 76%; (second compound 0.1 µM, first compound 3.16 µM) 80.1%; (second compound 0.1 µM, first compound 10 µM) 74.6%. Further, the viability, T/C is, setting by setting: (second compound 0.316 µM, first compound 0.0316 µM) 91.8%; (second compound 0.316 µM, first compound 0.1 µM) 87%; (second compound 0.316 µM, first compound 0.316 µM) 76.5%; (second compound 0.316 µM, first compound 1 µM) 79.3%; (second compound 0.316 µM, first compound 3.16 µM) 75.7%; (second compound 0.316 µM, first compound 10 µM) 69.8%. Also, the viability, T/C is, setting by setting: (second compound 1 µM, first compound 0.0316 µM) 84.1%; (second compound 1 µM, first compound 0.1 µM) 91.2%; (second compound 1 µM, first compound 0.316 µM) 81.7%; (second compound 1 µM, first compound 1 µM) 73.6%; (second compound 1 µM, first compound 3.16 µM) 78.4%; (second compound 1 µM, first compound 10 µM) 79.8%.

In the case of `CCc1c2c(nc3ccc(O)cc13)-c1cc3c(c(=O)n1C2)COC(=O)[C@]3(O)CC`, the viability, T/C (compound 0.000949 µM) is 69.8% [middle of 4 runs]; the viability, T/C (compound 0.003 µM) was 35% [middle of 4 runs]; the viability, T/C (compound 0.00949 µM) was 16.7% [middle of 4 runs]; the viability, T/C (compound 0.03 µM) is 7.4% [middle of 4 runs]; the viability, T/C (compound 0.0949 µM) is 2.65% [middle of 4 runs]; the viability, T/C (compound 0.3 µM) was 2.02% [middle of 4 runs]. Further, the IC50 (curve of compound) was 1.8 nM [middle of 4 runs].

In the case of `C[C@@H](NC(=O)c1ncnc(N)c1Cl)c1ncc(C(=O)Nc2cc(C(F)(F)F)c(Cl)cn2)s1` + CCn1c(-c2cccnc2C(C)OC)c2c3cc(ccc31)N1CCOC(CC(NC(=O)C(C(C)C)N(C)C(=O)C3(F)CCN(C(=O)C#CC(C)(C)N(C)C)CC3)C(=O)N3CCCC(N3)C(=O)OCC(C)(C)C2)C1, the IC50 was over 10 µM (curve of first compound, second compound 0.000949 µM); over 10 µM (curve of first compound, second compound 0.003 µM); over 10 µM (curve of first compound, second compound 0.00949 µM); over 10 µM (curve of first compound, second compound 0.03 µM); over 10 µM (curve of first compound, second compound 0.0949 µM); over 10 µM (curve of first compound, second compound 0.3 µM). Besides, the viability, T/C reads like this: (second compound 0.000949 µM, first compound 0.0316 µM) 106%; (second compound 0.000949 µM, first compound 0.1 µM) 109%; (second compound 0.000949 µM, first compound 0.316 µM) 113%; (second compound 0.000949 µM, first compound 1 µM) 133%; (second compound 0.000949 µM, first compound 3.16 µM) 128%; (second compound 0.000949 µM, first compound 10 µM) 111%. For the same compound, the viability, T/C (second compound 0.003 µM, first compound 0.0316 µM) was 102%; the viability, T/C (second compound 0.003 µM, first compound 0.1 µM) was 104%; the viability, T/C (second compound 0.003 µM, first compound 0.316 µM) was 120%; the viability, T/C (second compound 0.003 µM, first compound 1 µM) is 134%; the viability, T/C (second compound 0.003 µM, first compound 3.16 µM) is 127%; the viability, T/C (second compound 0.003 µM, first compound 10 µM) is 108%. In addition, the viability, T/C reads like this: (second compound 0.00949 µM, first compound 0.0316 µM) 98%; (second compound 0.00949 µM, first compound 0.1 µM) 114%; (second compound 0.00949 µM, first compound 0.316 µM) 106%; (second compound 0.00949 µM, first compound 1 µM) 129%; (second compound 0.00949 µM, first compound 3.16 µM) 150%; (second compound 0.00949 µM, first compound 10 µM) 108%. In addition, the viability, T/C (second compound 0.03 µM, first compound 0.0316 µM) was 110%; the viability, T/C (second compound 0.03 µM, first compound 0.1 µM) is 106%; the viability, T/C (second compound 0.03 µM, first compound 0.316 µM) was 129%; the viability, T/C (second compound 0.03 µM, first compound 1 µM) is 115%; the viability, T/C (second compound 0.03 µM, first compound 3.16 µM) was 142%; the viability, T/C (second compound 0.03 µM, first compound 10 µM) was 103%. Further, the viability, T/C reads like this: (second compound 0.0949 µM, first compound 0.0316 µM) 96.8%; (second compound 0.0949 µM, first compound 0.1 µM) 98.5%; (second compound 0.0949 µM, first compound 0.316 µM) 113%; (second compound 0.0949 µM, first compound 1 µM) 118%; (second compound 0.0949 µM, first compound 3.16 µM) 130%; (second compound 0.0949 µM, first compound 10 µM) 99.6%. The viability, T/C (second compound 0.3 µM, first compound 0.0316 µM) is 88.1%; the viability, T/C (second compound 0.3 µM, first compound 0.1 µM) is 89.3%; the viability, T/C (second compound 0.3 µM, first compound 0.316 µM) was 85.5%; the viability, T/C (second compound 0.3 µM, first compound 1 µM) was 95.9%; the viability, T/C (second compound 0.3 µM, first compound 3.16 µM) is 108%; the viability, T/C (second compound 0.3 µM, first compound 10 µM) is 82.4%.

With `CC(=O)OC12COC1CC(O)C1(C)C(=O)C(O)C3=C(C)C(OC(=O)C(O)C(NC(=O)OC(C)(C)C)c4ccccc4)CC(O)(C(OC(=O)c4ccccc4)C21)C3(C)C` (centres undefined), the viability, T/C is, setting by setting: (compound 0.0316 µM) 9.48% [middle of 4 runs]; (compound 0.1 µM) 12% and 10.2% (2×) and 9.32%; (compound 0.316 µM) 11.3% [middle of 4 runs]; (compound 1 µM) 12.8% [middle of 4 runs]; (compound 3.16 µM) 14.2% [middle of 4 runs]; (compound 10 µM) 13.2% [middle of 4 runs]. For the setting “curve of compound”, the IC50 is under 0.0316 µM.

For the compound `CCC(CC)c1cc(NC2CCC(N)C2)n2nccc2n1` (centres undefined), the viability, T/C reads like this: (compound 0.0316 µM) 100% [middle of 4 runs]; (compound 0.1 µM) 105% [middle of 4 runs]; (compound 0.316 µM) 105% [middle of 4 runs]; (compound 3.16 µM) 3.17% [middle of 4 runs]; (compound 10 µM) 4.82% [middle of 4 runs]. Further, the IC50 (curve of compound) is 1.68 µM [middle of 4 runs].

By IC50 is commonly meant the concentration that gives 50% inhibition. By viability, T/C is commonly meant the ratio of treated to control.
